Test results taken from patent publication US7745479B2, “1,5-substituted indol-2-yl amide derivatives” (Hoffmann-La Roche Inc., priority 2005, dated 2010).

Target: T1, histamine 3 receptor (H3R) (Homo sapiens, UniProt Q9Y5N1)
T1 construct: expressed in transfected cells; host or cells: CHO cells (HR3-CHO cell line), membrane preparation
Assay: Competition binding assay with 3H-(R)α-methylhistamine on membranes of the human HR3-CHO cell line
Conditions: competition with 3H(R)α-Methylhistamine (1 nM), Ki calculated from IC50 by Cheng-Prusoff equation
Protocol: Binding Assay with ^3H-(R)α-methylhistamine
Saturation binding experiments were performed using HR3-CHO membranes prepared as described in Takahashi, K, Tokita, S., Kotani, H. (2003) J. Pharmacol. Exp. Therapeutics 307, 213-218.
An appropriate amount of membrane (60 to 80 μg protein/well) was incubated with increasing concentrations of ^3H(R)α-Methylhistamine di-hydrochloride (0.10 to 10 nM). Non specific binding was determined using a 200 fold excess of cold (R)α-Methylhistamine dihydrobromide (500 nM final concentration). The incubation was carried out at room temperature (in deep-well plates shaking for three hours). The final volume in each well was 250 μl. […] After harvesting, the plates were dried at 55° C. for 60 min, then scintillation fluid (Microscint 40, 40 microl in each well) was added and the amount of radioactivity on the filter was determined with a Packard top-counter after shaking the plates for two hours at 200 rpm at room temperature. • Binding Buffer: 50 mM Tris-HCl pH 7.4 and 5 mM MgCl2x6H2O pH 7.4. […]
An appropriate amount of protein, e.g. approximately 500 cpm binding of RAMH at Kd, were incubated for 1 hour at room temperature in 250 μl final volume in 96-well plates in presence of ^3H(R)α-Methylhistamine (1 nM final concentration=Kd). Non-specific binding was determined using a 200 fold excess of cold (R)α-Methylhistamine dihydrobromide. […]

T1 sequence (Q9Y5N1 whole entry): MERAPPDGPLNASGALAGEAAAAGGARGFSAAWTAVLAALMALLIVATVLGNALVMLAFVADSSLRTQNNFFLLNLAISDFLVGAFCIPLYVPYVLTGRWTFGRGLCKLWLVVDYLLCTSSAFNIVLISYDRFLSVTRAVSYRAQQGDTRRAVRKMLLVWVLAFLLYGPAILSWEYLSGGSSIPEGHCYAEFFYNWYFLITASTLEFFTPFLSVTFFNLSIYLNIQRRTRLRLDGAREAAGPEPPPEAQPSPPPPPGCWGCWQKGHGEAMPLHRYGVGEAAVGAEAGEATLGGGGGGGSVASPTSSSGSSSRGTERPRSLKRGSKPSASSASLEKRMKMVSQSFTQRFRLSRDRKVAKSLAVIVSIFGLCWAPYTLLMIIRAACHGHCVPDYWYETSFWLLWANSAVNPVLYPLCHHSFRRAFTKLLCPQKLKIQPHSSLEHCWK

CC(C)N1CCC(Oc2ccc3c(c2)cc(C(=O)N2CCC(F)(F)CC2)n3-c2ccnc(Cl)c2)CC1 [Example 9, [1-(2-Chloro-pyridin-4-yl)-5-(1-isopropyl-piperidin-4-yloxy)-1H-indol-2-yl]-(4,4-difluoro-piperidin-1-yl)-methanone] was tested, and the Ki was 2 nM.
